The source of these data is US20100227923A1, “PREVENTIVE/REMEDY FOR URINARY CALCULOSIS” (GODO SHUSEI CO., LTD., priority 2006, published 2010).

Like-named read-outs stand apart in the source and are kept apart here.

For series [1] the following is noted: Non-Patent Documents 4 to 6; cited from earlier work.
The conditions of series [2]: Non-Patent Documents 4 to 6; cited from earlier work. The source holds these as a separate data set.
Series [3] concerns mice. Briefly: Single-dose peroral safety experiment of mice (LD50). Type of series: in vivo.
A short description of series [4]: Percent urine excretion (24 hours) of rats after intravenous administration. The format is in vivo, Wistar rats. Particulars: for Percent urine excretion (24 hours): rats, 0.5 mmol/kg i.v., av. ± standard error. The procedure: (§1) The percent urine excretion (24 hours) was determined in the following manner. To each of the 5- to 6-week-old male Wistar rats which had been fasted overnight, sodium L-arabonate (0.5 mmol/kg) was administered through the tail vein. The rats were placed in a metabolic cage where urine was collected for 24 hours. After removal of protein from the blood samples and urine samples, the blood L-arabonic acid level of each sample was determined through HPLC. Instead of L-arabonic acid, sodium D-gluconate was administered to the rats of the control group. The blood sodium D-gluconate level was determined by means of an F-kit (product of Roche Diagnostic).

A short description of series [5]: Blood level of rats after intravenous administration. The format is in vivo, Wistar rats. The procedure: After fasting overnight, 10- to 11-week old Wistar male rats were anesthetized with Nembutal, and sodium L-arabonate (0.5 mmol/kg) was administered through the femoral vein of each rat. Blood was sampled through the carotid artery as time elapsed, whereby the L-arabonic acid level was determined. Blood collection was performed by means of a heparin-treated capillary before administration and 5 min, 15 min, 30 min, and 1 hour after administration.
as §1

With `O=C(O)[C@H](O)[C@@H](O)[C@H](O)[C@H](O)CO` [D-gluconic acid], the “Dissolving of calcium phosphate calculi and magnesium phosphate calculi” value in series [1] was “dissolve”. Besides, the “Dissolving of calcium oxalate calculi” value in series [2] is “not to dissolve”.

`O=C(O)[C@H](O)[C@@H](O)[C@@H](O)CO` [L-Arabonic acid, L-arabonic acid]: the LD50 entry in series [3] was “about 10 g/kg”. In series [4] (rat, in vivo), the “Metabolism in the body” value was “not metabolized in the body and is immediately excreted to urine”; the “Portion of the absorbed L-arabonic acid excreted to urine” value was roughly 100%.

In the case of `O=C([O-])[C@H](O)[C@@H](O)[C@H](O)[C@H](O)CO.[Na+]` [Sodium D-gluconate, sodium D-gluconate], the “Blood D-gluconic acid level” value in series [5] (rats, 0.5 mmol/kg i.v.) is “considerably low”. In addition, in series [4], the “Metabolism in the body” value was “a large portion thereof is thought to be metabolized and consumed in the body”; the “Percent urine excretion (24 hours)” value was 9.8 ± 9.76%. The “Percent urine excretion (24 hours)” value in series [4] (listed as sodium D-gluconate) was “about 10%”.

Turning to `O=C([O-])[C@H](O)[C@@H](O)[C@@H](O)CO.[Na+]` [Sodium L-arabonate, sodium L-arabonate], the “Time at which blood level decreased to about the half value” in series [5] (rat, in vivo, iv) was 22 min.
